Laboratory results published in article PMC11556054, “Development and Synthesis of Bombesin-Based Radiopharmaceutical Precursors Modified with Knottin” (Modern Technologies in Medicine, 2024).

Assays:
[1] = Radiochemical stability of 177Lu-labeled structures in 0.9% sodium chloride (radio-HPLC); format: physicochemical; details: for radiochemical purity after 168 h: 168 h in 0.9% sodium chloride at 37°C
Procedure: Lutetium (^177Lu) chloride was used as a radioligand. […] The radioactivity of samples was measured with a gamma counter ISOMED 2010 (PTW, Germany). Labeling of the peptides was conducted on a Gaia/Luna complex (Elysia-Raytest, Germany). […] The system was controlled by the Clarity programs (Clarity Software, Great Britain). The labeled peptides were purified from free lutetium with the help of single-use cartridges C18 (ABX, Germany), the GAIA complex was used according to the gel-filtration principle.

[2] = Chemical stability in 0.9% sodium chloride (HPLC chromatographic purity); format: physicochemical; details: target peak area as % of total peak area, M±SD
Procedure: The analysis of the synthesis and purity control of the commercial PSMA-617 (Huayi Isotopes, China) was performed using chromatographic system Shimadzu LC-20AD XR (Shimadzu, Japan), equipped with spectrophotometric detector SPD-20A, according to the principle of the reverse-phase chromatography with the help of Luna C18 column (Dr. Maisch, Germany) and gradient elution of acetonitrile (Criochrome, Russia) from 95 to 0% and deionized water from 0 to 100% for 40 min. Mass-spectrometric analysis was conducted on the basis of MALDI-TOF mass-spectrometry using MALDI-TOF MS system, series FLEX (Bruker Daltonics, Germany). The peptide was purified by means of a high-performance liquid chromatography system NGC Quest 10 (Bio-Rad, USA) using Bio-Gel P-4 sorbent on the Econo-Column 1×30 cm (Bio-Rad, USA).
Lutetium (^177Lu) chloride was used as a radioligand. […] The radioactivity of samples was measured with a gamma counter ISOMED 2010 (PTW, Germany). Labeling of the peptides was conducted on a Gaia/Luna complex (Elysia-Raytest, Germany). […] The system was controlled by the Clarity programs (Clarity Software, Great Britain). The labeled peptides were purified from free lutetium with the help of single-use cartridges C18 (ABX, Germany), the GAIA complex was used according to the gel-filtration principle. Radiochemical stability was evaluated using the same parameters after 24, 48, 96 and 168 h in 0.9% sodium chloride at 37°C. Chemical stability was similarly fixed in 0.9% sodium chloride as described above. Chromatographic purity was calculated as a percentage of the target substance peak area in relation to the total area of the peaks on the chromatogram taken as 100%.

HCT-116 culture = test: Binding of 6-FAM-labeled peptides to cell culture, fluorescence microscopy; format: cell-based, human; details: 1 μmol/L, 3 h incubation, washed with cooled phosphate buffer, ImageJ, >300 cells
Procedure: (§1) A fluorescent dye 6-FAM in the form of amine (Lumiprob, Russia) was used for bonding analysis. The peptides were labeled according a standard manufacturer protocol: they were dissolved in 0.1 mol/L solution of NaHCO3, 6-FAM dye was then added to the solution and incubated for 30 min at room temperature in the dark. The peptides were purified from the dye excess using alcohol precipitation method. For purification, one part of the labeled peptide solution was mixed with nine parts of the 95% ethanol cooled at –20°C. Further, the peptides were incubated for 90 min at the same temperature (–20°C). After incubation, the cooled solution was centrifuged for 15 min at 13,000 rpm in the Allegra centrifuge (Beckman Coulter, USA). After centrifugation, the supernatant, containing the labeled peptide, was removed and dried using a vacuum concentrator (Eppendorf, Germany).
(§2) The peptides were bound to the cell cultures such as HCT-116, LnCap, PC-3, CHO-K1. The HCT-116 (human colorectal carcinoma cell line) and CHO-K1 (an epithelial cell line derived from the Chinese hamster ovary) were obtained from the Russian collection of cell cultures of vertebrate. The LnCap (PSMA-positive adenocarcinoma of the human prostate gland) and PC-3 cultures (PSMA-negative adenocarcinoma of the human prostate obtained from the bone metastases) were kindly provided by the N.N. Blokhin National Medical Research Center of Oncology (Russia). […]
(§3) 24 h before the experiment, the cultures were seeded in 24-well plates at the concentration of 100,000/well (LnCap — 150,000/well) to achieve the exponential stage. […] After the incubation, the medium with unbonded peptides was removed, the plate wells were washed with a cooled phosphate buffer and the fluorescence signal was recorded using an optical system equipped with a Nikon Ti-S microscope, DS-Qi1MC camera, S Plan Fluor ELWD 20×0.45 objective lenses, 465-495/515-555 nm filter (Nikon, Japan), and a computer with NIS-elements 4.0 software package.
(§4) The quantitative analysis of images was performed with an ImageJ program. The fluorescence signal from more than 300 cells was analyzed for each peptide. The fluorescence intensity was calculated by the following formula: total cell fluorescence = integral density – (area of the selected cell × mean fluorescence of the background indicators) as described by Khokhlova et al.. Shortly it looks like as follows: to obtain a fluorescence signal of each selected cell in the ImageJ program, the integral density parameter is taken, after that, the fluorescence of the background, equal in area to the cell size, is subtracted from this parameter. The fluorescence signal without peptides was registered as a control. The data were presented in the relative units of fluorescence.

LnCap culture = test: as above; format: cell-based, human; details: 1 μmol/L, 3 h incubation, washed with cooled phosphate buffer, ImageJ, >300 cells
Procedure: as §1, §2, §3, §4

PC-3 culture = test: as above; format: cell-based, human; details: 1 μmol/L, 3 h incubation, washed with cooled phosphate buffer, ImageJ, >300 cells
Procedure: as §1, §2, §3, §4

CHO-K1 culture = test: as above; format: cell-based, Chinese hamster; details: 1 μmol/L, 3 h incubation, washed with cooled phosphate buffer, ImageJ, >300 cells, negative control culture
Procedure: as §1, with “After incubation, the cooled solution was centrifuged for 15 min at 13,000 rpm in the Allegra centrifuge (Beckman Coulter, USA). After centrifugation, the supernatant, containing the labeled peptide, was removed and dried using a vacuum concentrator (Eppendorf, Germany).” left out
as §3
The quantitative analysis of images was performed with an ImageJ program. The fluorescence signal from more than 300 cells was analyzed for each peptide. […] The fluorescence signal without peptides was registered as a control. […]

Row | SMILES | radiochemical purity after 24 h ([1]; 24 h in 0.9% sodium chloride at 37°C, radio-HPLC, M±SD) [%] | radiochemical purity after 48 h ([1]; 48 h in 0.9% sodium chloride at 37°C, radio-HPLC, M±SD) [%] | radiochemical purity after 168 h ([1]; radio-HPLC, M±SD) [%] | radiochemical purity, initial ([1]; initial (after labeling and C18 cartridge purification), radio-HPLC with GABI detector, acetonitrile/water (0.01% TFA) gradient, M±SD) [%] | labeling result retained (radiochromatogram, Figure 4) after 168 h ([1]; after 168 h, radiochromatogram) | chemical stability (chromatographic purity) after 24 h ([2]; 24 h in 0.9% sodium chloride, 37°C) [%] | chemical stability (chromatographic purity) after 168 h ([2]; 168 h in 0.9% sodium chloride, 37°C) [%] | chemical stability (chromatographic purity), initial ([2]; initial) [%] | binding to HCT-116 culture (fluorescence signal) (HCT-116 culture) | binding to LnCap culture (fluorescence signal) (LnCap culture) | binding to LnCap culture (fluorescence signal) (LnCap culture; listed as PSMA- 617) | binding to PC-3 culture (fluorescence signal) (PC-3 culture) | binding to CHO-K1 culture (fluorescence signal) (CHO-K1 culture)
1 | O=C([O-])CN1CCN(CC(=O)[O-])CCN(CC(=O)NCC2CCC(C(=O)N[C@@H](Cc3ccc4ccccc4c3)C(=O)NCCCC[C@H](NC(=O)N[C@@H](CCC(=O)O)C(=O)O)C(=O)O)CC2)CCN(CC(=O)[O-])CC1.[177Lu+3] (some centres unmarked) [Lu-PSMA-617] | 39.6±4.1 | 19.7±2.9 | 9.2±0.7 | 99.7±3.2 |  |  |  |  |  |  |  |  | 
2 | O=C(O)CC[C@H](NC(=O)N[C@@H](CCCCNC(=O)[C@H](Cc1ccc2ccccc2c1)NC(=O)[C@H]1CC[C@H](CNC(=O)CN2CCN(CC(=O)O)CCN(CC(=O)O)CCN(CC(=O)O)CC2)CC1)C(=O)O)C(=O)O [PSMA-617] |  |  | 9.2±0.7 |  | almost completely detached | 80.6±6.7 | 42.9±3.4 | 99.1±2.6 | not bound | high degree of attachment | is binding to the LnCap culture | not bound | not bound
